Measurements published in patent US11986532B2 (Arvinas Operations, Inc., priority 2021, dated 2024).
Where two headings read alike, the source gives them in different places.

Target: T1, BCL6 (Homo sapiens, UniProt P41182)
T1 construct: endogenous in cells; host or cells: T47D breast cancer epithelial cells
Test: Immunofluorescence protocol for high content imaging of BCL6 (degradation) in T47D cells, 3 days compound treatment
Format: cell-based
Settings: for Dmax: read-out: Mean Dmax (%)** category; for DC50: read-out: Mean DC50 (nM)* category
Method in brief: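 Cells are seeded to reach ~70-90% confluence at endpoint, then dosed next day with compound at a final top concentration of 0.1 or 1 μM (11 points, 3-fold). After 3 days, BCL6 is detected by immunofluorescence and quantified by high-content imaging.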

[1] = T47D cells, 3 days compound treatment

| DC50 [1] [nM] | Dmax [1] [%] | Compound | Dmax (T47D) [%] | DC50 [nM] |
| --- | --- | --- | --- | --- |
| – | – | CNC(=O)COc1cc2cc(Nc3nc(N4CCC(O[C@H]5C[C@H](N6CC7(CCN(c8ccc9c(c8)C(=O)N(C8CCC(=O)NC8=O)C9=O)CC7)C6)C5)CC4)ncc3Cl)ccc2n(C(C)C)c1=O (some centres unmarked) [Compound 365, 2-({6-[(5-chloro-2-{4-[(1r,3r)-3-{7-[2-(2,6-dioxopiperidin-3-yl)-1,3-dioxo-2,3-dihydro-1H-isoindol-5-yl]-2,7-diazaspiro [3.5]nonan-2-yl}cyclobutoxy]piperidin-1-yl}pyrimidin-4-yl)amino]-2-oxo-1-(propan-2-yl)-1,2-dihydroquinolin-3-yl}oxy)-N-methylacetamide] | 50 to 70 | < 10 |
| – | – | CNC(=O)COc1cc2cc(Nc3nc(N4CCN(C[C@H]5C[C@H](N6CCN(c7ccc8c(c7)CN(C7CCC(=O)NC7=O)C8=O)CC6)C5)CC4)ncc3Cl)ccc2n(C(C)C)c1=O (some centres unmarked) [Compound 342, 2-[(6-{[5-chloro-2-(4-{[(1r,3r)-3-{4-[2-(2,6-dioxopiperidin-3-yl)-1-oxo-2,3-dihydro-1H-isoindol-5-yl]piperazin-1-yl}cyclobutyl]methyl}piperazin-1-yl)pyrimidin-4-yl]amino}-2-oxo-1-(propan-2-yl)-1,2-dihydroquinolin-3-yl)oxy]-N-methylacetamide] | ≥ 70 | < 10 |
| < 10 | ≥ 70 | CNC(=O)COc1cc2cc(Nc3nc(N4CCC(O[C@H]5C[C@H](N6CCN(c7ccc8c(c7F)CN(C7CCC(=O)NC7=O)C8=O)[C@H](C)C6)C5)CC4)ncc3Cl)ccc2n(C(C)C)c1=O (some centres unmarked) [Compound 175] | – | – |
| – | – | CNC(=O)COc1cc2cc(Nc3nc(N4CCC(O[C@H]5C[C@H](N6CCC(c7cc8c(cc7Cl)C(=O)N(C7CCC(=O)NC7=O)C8)CC6)C5)CC4)ncc3Cl)ccc2n(C(C)C)c1=O (some centres unmarked) [Compound 329, 2-({6-[(5-chloro-2-{4-[(1r,3r)-3-{4-[6-chloro-2-(2,6-dioxopiperidin-3-yl)-1-oxo-2,3-dihydro-1H-isoindol-5-yl]piperidin-1-yl}cyclobutoxy]piperidin-1-yl}pyrimidin-4-yl)amino]-2-oxo-1-(propan-2-yl)-1,2-dihydroquinolin-3-yl}oxy)-N-methylacetamide] | 50 to 70 | < 10 |
| < 10 | < 50 | CNC(=O)COc1cc2cc(Nc3nc(N4CCC(OC5CN([C@H]6CC[C@@H](c7ccc8c(c7Cl)CN(C7CCC(=O)NC7=O)C8=O)CC6)C5)CC4)ncc3Cl)ccc2n(C(C)C)c1=O (some centres unmarked) [Compound 186, 2-{[6-({5-chloro-2-[4-({1-[(1s,4s)-4-[4-chloro-2-(2,6-dioxopiperidin-3-yl)-1-oxo-2,3-dihydro-1H-isoindol-5-yl]cyclohexyl]azetidin-3-yl}oxy)piperidin-1-yl]pyrimidin-4-yl}amino)-2-oxo-1-(propan-2-yl)-1,2-dihydroquinolin-3-yl]oxy}-N-methylacetamide] | – | – |
| 50 to 100 | ≥ 70 | CNC(=O)COc1cc2cc(Nc3nc(N4CCN(C[C@H]5C[C@H](N6CCC(c7ccc8c(c7)C(=O)N(C7CCC(=O)NC7=O)C8=O)CC6)C5)CC4)ncc3Cl)ccc2n(C(C)C)c1=O (some centres unmarked) [Compound 41, 2-[(6-{[5-chloro-2-(4-{[(1r,3r)-3-{4-[2-(2,6-dioxopiperidin-3-yl)-1,3-dioxo-2,3-dihydro-1H-isoindol-5-yl]piperidin-1-yl}cyclobutyl]methyl}piperazin-1-yl)pyrimidin-4-yl]amino}-2-oxo-1-(propan-2-yl)-1,2-dihydroquinolin-3-yl)oxy]-N-methylacetamide] | – | – |

| Compound | DC50 [1] [nM] | Dmax [1] [%] | Dmax (T47D) [%] | DC50 [nM] |
| --- | --- | --- | --- | --- |
| CNC(=O)COc1cc2cc(Nc3nc(N4CCC(O[C@H]5C[C@H](N6CCC(c7cc(F)c8c(c7)CN(C7CCC(=O)NC7=O)C8=O)CC6)C5)CC4)ncc3Cl)ccc2n(C(C)C)c1=O (some centres unmarked) [Compound 92, 2-({6-[(5-chloro-2-{4-[(1r,3r)-3-{4-[2-(2,6-dioxopiperidin-3-yl)-7-fluoro-1-oxo-2,3-dihydro-1H-isoindol-5-yl]piperidin-1-yl}cyclobutoxy]piperidin-1-yl}pyrimidin-4-yl)amino]-2-oxo-1-(propan-2-yl)-1,2-dihydroquinolin-3-yl}oxy)-N-methylacetamide] | < 10 | ≥ 70 | – | – |
